# Assay results as given in ChEMBL document CHEMBL3507680, “University of Dundee, Gates Library screen for HepG2 cell viability”.
# Test: Human HepG2 cell viability assay in 384 well format
# Type: toxicity, cell-based
# Design: dose 125 nL, time 70.5 hour; cytotoxicity at 70.5 h: concentration not given beside the values
# Details: HepG2 cells, read-out: Inhibition
row,SMILES,cytotoxicity at 70.5 h [%]
1,CCCN1C[C@H]2CC[C@@H]1CN(Cc1ccc(Cn3cccn3)cc1)C2,-7.61
2,Cc1cc(C(=O)NC2CCCCNC2=O)c(=O)[nH]c1C (stereo unspecified),-6.38
3,COc1cc(NC(=O)N(C)Cc2ccc(Br)o2)ncn1,-8.49
4,Cc1cnc(C(=O)N2CCC3(CC2)C(=O)NCCN3CC(C)C)cn1,-2.5
5,N#Cc1ccc(OCC(O)CN2CCc3cncnc3C2)cc1 (stereo unspecified),2.9
6,CC(C)c1cc(C(=O)NCc2nc(-c3ccc(F)cc3)n[nH]2)n[nH]1,12.6
7,CC(C)C(C)N(C)C(=O)COc1ccccc1C#N (stereo unspecified),1.38
8,CC(C)(C)C(NC(=O)CCCS(C)(=O)=O)c1ccc(F)cc1F (stereo unspecified),-0.26
9,Cc1cc(C)n(C2CCN(C(=O)CN3C(=O)CSc4ccccc43)C2)n1 (stereo unspecified),30.3
10,COc1ccc(OC)c(C(=O)Nc2cccnc2-n2cncn2)c1,-10.9
11,CC1CCc2nc(NS(=O)(=O)c3cnn(C)c3)sc2C1 (stereo unspecified),0.918
12,N#CC1(NC(=O)COC(=O)Cc2cc(Cl)c3c(c2)OCCO3)CCCC1,16.4
13,O=C(c1ccnnc1)N1CCO[C@H]2[C@H](Oc3cccnc3)CC[C@@H]21,-13.8
14,O=C(NCCCNC(=O)c1ccc(F)cc1F)c1cccc(O)c1,-1.34
15,CC(=O)N1CCC2(CC1)C(=O)N(CC1CC1)c1ccccc12,-11.9
16,Cc1nc(C2CCCN2CC(=O)NCCc2ccsc2)no1 (stereo unspecified),-2.7
17,O=C(CCOc1ccccc1)NS(=O)(=O)Cc1ccccc1,-5.31
18,COc1ccccc1CCNC(=O)N1CCC(n2cncn2)CC1,-7.07
19,CN(C)Cc1cnc2n1CCN(C(=O)Cc1ccsc1)CC2,8.26

row,SMILES,cytotoxicity at 70.5 h [%]
1,Cc1cc(C)n(-c2cc(N3CCN(C(=O)C(C)(C)C)CC3)nc(C)n2)n1,2.21
2,CCc1nc(C)ncc1C(=O)N1CCN(CC)c2ccccc21,8.71
3,CSCCc1n[nH]c2c1CN(S(=O)(=O)c1c(C)nn(C)c1C)CC2,17.2
4,Cc1cc(C)nc(N2CCCC(c3cccc(-n4ccnc4)n3)C2)n1 (stereo unspecified),-5.86
5,Cc1nc2c(C)cccc2cc1C(=O)N1CCC2(CCNCC2)CC1,-5.65
6,COc1ccc(CN2CCN(Cc3nccn3C)C(C)C2)cc1F (stereo unspecified),-9.42
7,NS(=O)(=O)N1CCc2ccc(NC(=O)CCc3ccncc3)cc21,22.2
8,CC(C)(O)CCc1cccc(C(=O)N2CCC3(CCOCC3)CC2)c1,-2.42
9,O=C(c1ccccn1)N1CCc2ncc(Cn3cccn3)n2CC1,-7.08
10,NC(=O)N1CCc2ncc(CNC(=O)CC3CC3)n2CC1,1.82
11,CCn1c(C)nc2cc(NC(=O)C3CN(C(C)=O)C3)ccc21,-5.1
12,Cc1ocnc1CNC(=O)Nc1ccc(N2CCOC(C)C2)cc1 (stereo unspecified),-17.7
13,CCN(CCC(=O)OC)C(=O)c1cc(F)cc2[nH]cnc12,0.0493
14,Cc1cccc(CO[C@@H]2C[C@H]3CN(c4ncccn4)CCN3C2)n1,-1.58
15,O=C1NCc2ccccc2CC12CCN(Cc1c(F)cccc1Cl)C2 (stereo unspecified),-5.69
16,c1nc2onc(C3CC3)c2cc1-c1nnc(C2CC2)o1,1.7
17,Cn1cc(N2CCC(NC(=O)c3c(F)cccc3F)C2=O)cn1 (stereo unspecified),-2.48
18,O=C(NC1CCc2ccccc2C1)C1CCN(Cc2ccco2)CC1 (stereo unspecified),-2.67
19,CCCN(Cc1cccnc1)Cc1ccc(C2CCCCO2)o1 (stereo unspecified),-2.3

row,SMILES,cytotoxicity at 70.5 h [%]
1,Cc1nnsc1CN(C)C(=O)CCn1cnc2ccccc21,-9.98
2,COc1ccnc(NC2CCN(CC(=O)N3CCCC3)CC2)n1,-4.69
3,O=C(c1cncs1)N1CCc2[nH]nc(Nc3ccccc3)c2C1,-3.16
4,COCCc1noc(CNCC2CCCN2c2cccnn2)n1 (stereo unspecified),2.33
5,O=C(NC1CCN(Cn2nc(-c3ccccc3)oc2=O)CC1)C1CC1,1.77
6,CN(C)c1cc(C(=O)N2CCCN(c3cccnn3)CC2)ccn1,-9.96
7,CCC(C)CN1CCC(n2cc(C3CCCC3)nn2)CC1 (stereo unspecified),0.72
8,CC(C)CCC(=O)N1CCCC2(CCN(Cc3ccccc3C#N)C2)C1 (stereo unspecified),-5.13
9,CCN(C)S(=O)(=O)N[C@H]1CN(c2ccc(F)cn2)C[C@@H]1C(C)C,-1.25
10,Cc1nn(C)c2c(=O)n(CC(=O)NCc3ccccn3)ccc12,0.706
11,COC(=O)c1cc(OCC2CCC2)cc(C(=O)N[C@H]2CC[C@H](O)CC2)c1,15.3
12,O=S(=O)(c1ccc(Cl)cc1)N1CCN(CCCn2ccnc2)CC1,-1.12
13,O=C(c1cccnc1O)N1CCN(Cc2ccccc2F)CC1,17.4
14,Cc1ccc2oc(CN3CCn4nc(CCC(=O)O)cc4C3)c(C)c2c1,32
15,CN(Cc1ccc(Br)s1)Cn1nc(-c2ccccc2)oc1=O,-9.53
16,O=S(=O)(c1cccs1)N1Cc2nc(CN3CCCCC3)oc2C1,-8.94
17,Cn1nc(C2CCN(C(=O)c3cccs3)CC2)c2cccnc21,-4.94
18,CN(C)C(=O)CN1CC[C@@H]2O[C@@H](COCc3cccnc3)CC[C@@H]21,-1.43
